# Read-outs that look alike come from different tables or passages of the source.
# Legend:
# [1] = system: M. turberculosis Dormancy Regulon; details: Kumar et al., cited from earlier work
# [2] = system: dos regulon genes (dosR, dosS, fdxA); assay type: cell-based, M. bovis BCG
# [3] = system: dos regulon genes (dosR, dosS, fdxA); assay type: cell-based; details: Mtb H37Rv treated for 4 hours; Real time PCR
# KatG = KatG (Mycobacterium tuberculosis, UniProt P9WIE5); assay: CO detection: KatG/tBHP activation, CO trapped by deoxyMyoglobin (MbCO, absorbance 540 nm); assay type: biochemical
# Sequence of KatG (P9WIE5 whole entry): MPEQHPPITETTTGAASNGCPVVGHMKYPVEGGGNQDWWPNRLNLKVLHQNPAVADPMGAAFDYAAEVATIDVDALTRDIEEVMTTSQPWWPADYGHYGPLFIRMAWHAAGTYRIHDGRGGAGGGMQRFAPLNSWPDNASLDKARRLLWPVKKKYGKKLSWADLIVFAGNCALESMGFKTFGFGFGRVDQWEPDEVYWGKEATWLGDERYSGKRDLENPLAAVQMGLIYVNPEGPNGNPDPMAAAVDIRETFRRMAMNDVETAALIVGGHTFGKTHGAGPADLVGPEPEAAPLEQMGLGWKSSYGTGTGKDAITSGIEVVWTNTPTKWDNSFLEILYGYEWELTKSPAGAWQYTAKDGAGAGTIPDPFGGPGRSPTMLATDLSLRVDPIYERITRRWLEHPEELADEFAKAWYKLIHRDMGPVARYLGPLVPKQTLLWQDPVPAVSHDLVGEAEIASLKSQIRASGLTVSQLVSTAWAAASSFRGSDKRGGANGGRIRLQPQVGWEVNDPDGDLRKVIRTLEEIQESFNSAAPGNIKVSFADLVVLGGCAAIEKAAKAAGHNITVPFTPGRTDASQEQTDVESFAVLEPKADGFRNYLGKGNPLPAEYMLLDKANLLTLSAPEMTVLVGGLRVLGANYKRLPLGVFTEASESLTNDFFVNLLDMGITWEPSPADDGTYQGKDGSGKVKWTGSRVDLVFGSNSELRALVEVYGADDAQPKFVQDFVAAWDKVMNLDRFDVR
smiles,measurement,setting,value
[C-]#[O+] [CO],+CO/−CO,[1]; gene Rv0079,3.3
same,+CO/−CO,[1]; gene Rv0080,2.9
same,+CO/−CO,[1]; gene Rv0081,2.3
same,+CO/−CO,[1]; gene Rv0669,6
same,+CO/−CO,[1]; gene Rv0670 nroZ,3.2
same,+CO/−CO,[1]; gene Rv0671,2.3
same,+CO/−CO,[1]; gene Rv0672,2.8
same,+CO/−CO,[1]; gene Rv0673 pncB2,1.5
same,+CO/−CO,[1]; gene Rv0674,1.7
same,+CO/−CO,[1]; gene Rv1733,2.3
same,+CO/−CO,[1]; gene Rv1734,2
same,+CO/−CO,[1]; gene Rv1735,1.6
same,+CO/−CO,[1]; gene Rv1736 narX,2.4
same,+CO/−CO,[1]; gene Rv1737 narK2,2.1
same,+CO/−CO,[1]; gene Rv1738,5.8
same,+CO/−CO,[1]; gene Rv1812,1.9
same,+CO/−CO,[1]; gene Rv1813,5.1
same,+CO/−CO,[1]; gene Rv1996,2.4
same,+CO/−CO,[1]; gene Rv1997 ctpF,6.8
same,+CO/−CO,[1]; gene Rv2003,3.3
same,+CO/−CO,[1]; gene Rv2004,4.8
same,+CO/−CO,[1]; gene Rv2005,6.7
same,+CO/−CO,[1]; gene Rv2006 otsB1,2.6
same,+CO/−CO,[1]; gene Rv2007 foxA,7.1
same,+CO/−CO,[1]; gene Rv2028,1.9
same,+CO/−CO,[1]; gene Rv2029 pkfB,6.6
same,+CO/−CO,[1]; gene Rv2030,9.2
same,+CO/−CO,[1]; gene Rv2031 hsoX (acr),5.2
same,+CO/−CO,[1]; gene Rv2032 acg,8.4
same,+CO/−CO,[1]; gene Rv2823 TB31.7,6.8
same,+CO/−CO,[1]; gene Rv2824,7.1
same,+CO/−CO,[1]; gene Rv2825,2.2
same,+CO/−CO,[1]; gene Rv2826 hrp1,10
same,+CO/−CO,[1]; gene Rv2827,4.2
same,+CO/−CO,[1]; gene Rv2828,6.8
same,+CO/−CO,[1]; gene Rv2829,2.6
same,+CO/−CO,[1]; gene Rv2830,5.2
same,+CO/−CO,[1]; gene Rv2831,2.7
same,+CO/−CO,[1]; gene Rv3126,1.8
same,+CO/−CO,[1]; gene Rv3127,2.7
same,+CO/−CO,[1]; gene Rv3130 tgs1,11
same,+CO/−CO,[1]; gene Rv3131,3.3
same,+CO/−CO,[1]; gene Rv3132 dos8 (devS),3.1
same,+CO/−CO,[1]; gene Rv3133 dosR (devR),3
same,+CO/−CO,[1]; gene Rv3134,7.1
"NNC(=O)c1ccncc1 [INH, Isoniazid]","expression of dos regulon genes (dosR, dosS, fdxA)",[2],significantly increased
same,"expression of dos regulon genes (dosR, dosS, fdxA)",[3],significantly increased
same,CO produced from activated compound,KatG,"dependent upon dose, time, and KatG"
"NC(=O)c1ccc[n+]([C@@H]2O[C@H](COP(=O)([O-])OP(=O)(O)OC[C@H]3O[C@@H](n4cnc5c(N)ncnc54)[C@H](O)[C@@H]3O)[C@@H](O)[C@H]2O)c1 [NAD+, NAD]",formation of MbCO (CO-Mb),"KatG; various dosages, Kat G 22.44 μg per reaction, 1 mM tBHP",inhibited
